A short description of one series: in vivo. Conditions: ferret, po.
Series [1] has as its system Hidradenitis suppurativa (HS). Kind of series: Phase 2a open-label trial of orismilast in HS patients. The format is in vivo, human. As to conditions: for IHS4: Baseline 65; for VAS pain: Baseline 9; for DLQI: Baseline 25; for HiSQOL: Baseline 54. The text has this:
The following clinical trial may be performed using the compound of formula (I). Suitably the compound of formula (I) is orally administered to a subject in the form of a modified release composition, for example a modified release formulation described in WO 2020/148271, or as a composition described in Example 1 above. […] This is a phase 2, single-centre, prospective, open-label, single-arm, exploratory clinical trial assessing the efficacy and safety of orismilast in patients with mild, moderate, or severe HS as defined by the IHS4 scores: […] Eligible patients will receive treatment with orismilast tablets twice daily for 16 weeks. The treatment dose will be according to a predefined titration scheme and adapted to the observed tolerance of each patient. Treatment phase: […] Telephone consultation], and Week 2 [Visit 4]) (“BID” means bis in die, i.e. twice per day). Assessment of treatment efficacy will be undertaken using: • 1. Investigator assessments: • a. Counts of abscess, inflammatory nodule, and draining fistula at each on site visit day. • b. International Hidradenitis Suppurativa Severity Score System (IHS4) at each on site visit day. • c. Physician's Global Assessment of disease severity (HS-PGA) at each on site visit day. • 2. Patient assessments • a. Patients' Global Assessment of disease severity at Screening, Baseline, Week 2 (Visit 4), Week 8 (Visit 6), Week 12 (Visit 7), Week 16 (EoT, Visit 8), FU (Visit 9), and EoS (Visit 10). • b. Completion of questionnaires covering skin related quality of life DLQI at Screening, Baseline, Week 2 (Visit 4), Week 8 (Visit 6), Week 12 (Visit 7), Week 16 (EoT), FU, and EoS. • c. Completion of questionnaires covering HS specific quality of life (HiSQOL) at Screening, Baseline, Week 2 (Visit 4), Week 8 (Visit 6), Week 12 (Visit 7), Week 16 (EoT), FU, and EoS. • d. Completion of questionnaire covering skin pain (Patient's Global Assessment of Skin Pain) at each visit day. • e. Completion of questionnaire covering impact on work productivity (WPAI), anxiety and depression (HADS), fatigue (MFI-20), quality of life (EQ-5D), and McGill Pain questionnaire at Baseline, Week 16 (EoT), and EoS. • Counts of abscess, inflammatory nodule, and draining fistula. The lesions are defined in a Pan-European consensus paper ([…] et al., Dermatology. 2020; 236(5):431-438). […] An abscess is defined as a palpable lesion, with liquid content (pus), fluctuant, soft on palpation, diameter >10 mm, usually deep seated; acute, very painful phenomenon. […] A treatment target based on correlation between the changes in lesion counts and PROM (pain and HRQoL). Hidradenitis Suppurativa Clinical Response (HiSCR; a […] reduction from baseline in abscess and inflammatory nodule count and no increase in abscess or draining fistula counts) (Kimball et al., Ann Intern Med. 2012 Dec. 18; 157(12):846-55; Kimball et al., J Eur Acad Dermatol Venereol. 2016 June; 30(6):989-94). Subsequently modified for further differentiation: HiSCR75; a ≥75% reduction from baseline in abscess and inflammatory nodule count and no increase in abscess or draining fistula counts) and HiSCR-90; a ≥90% reduction from baseline in abscess and inflammatory nodule count and no increase in abscess or draining fistula counts) • International Hidradenitis Suppurativa Severity Score System (IHS4): […] The score is based on a count of inflamed lesions. The resulting IHS4 score is arrived at by the number of nodules (multiplied by 1) plus the number of abscesses (multiplied by 2) plus the number of draining tunnels (multiplied by 4). […] The six-point hidradenitis suppurativa Physician Global Assessment (PGA) ranges from clear to very severe (Kimball et al., Ann Intern Med. 2012 Dec. 18; 157(12):846-55). It is used in clinical trials to measure clinical improvement in inflammatory nodules, abscesses, and draining fistulae. The six stages are; • Clear: No inflammatory or non-inflammatory nodules. • Minimal: Only the presence of non-inflammatory nodules. • Mild: […]

Molecules are shown by their SMILES.

What is called NOAEL is the highest tested level that showed no adverse finding. For `O=C(Cc1c(Cl)c[n+]([O-])cc1Cl)c1ccc(OC(F)F)c2c1OC1(CCS(=O)(=O)CC1)O2` [Compound (I), 2-(3,5-Dichloro-1-oxido-pyridine-4-yl)-1-(7-difluoro-methoxy-2′,3′,5′,6′-tetrahydro-spiro[1,3-benzodioxole-2,4′-(4H)-thiopyran-1′,1′-dioxide]-4-yl)ethanone], the NOAEL at 3 h in the series “in vivo” was 3 mg/kg. In addition, the “clinical response (in words)” value in series [1] (first four HS patients enrolled, trial ongoing) is “initial signs of improvement in HS”; in series [1] (one patient refractory to conventional HS therapies) it was “immediate clinical improvement with reduction of tissue edema and pain, as well as increased mobility”. The IHS4 in series [1] (one patient, severe HS, Day 14, 10 to 30 mg twice daily) is 61; in series [1] (one patient, Day 57, 30 mg twice daily) it was 62. In addition, the VAS pain in series [1] (one patient, Day 14) is 7; in series [1] (one patient, Day 57), 6. The DLQI in series [1] (one patient, Day 14) turned out to be 23; in series [1] (one patient, Day 57), 22. Further, the HiSQOL came out at 42 in series [1] (one patient, Day 14) and 46 in series [1] (one patient, Day 57). This molecule registered a thrombocytes in series [1] (one patient, at day 14, baseline 402) of 365. The “patient's global assessment” value in series [1] (one patient, day 15) is reported as “very severe”; in series [1] (one patient, day 57), “severe”. This molecule also registered a leukocytes in series [1] (one patient, day 57, baseline 14.0) of 11.5. Moreover, the C-reactive protein in series [1] (one patient, day 57, baseline 89) is given as 84. The molecule also showed an erythrocyte sedimentation rate in series [1] (one patient, day 57, baseline 94) of 88. For the same molecule, the “physician's global assessment of disease activity” value in series [1] (one patient, during treatment to day 57) is “very severe”.

These data come from patent US20250268876A1, “TREATMENT OF HIDRADENITIS SUPPURATIVA WITH ORISMILAST” (UNION THERAPEUTICS A/S, priority 2021, published 2025).
